Source: paper PMC10770148, “Transport and inhibition mechanism for VMAT2-mediated synaptic vesicle loading of monoamines” (Cell Research, 2024)
Read-outs that look alike come from different tables or passages of the source.

How the values were obtained:
VMAT2 and VMAT1 = test system: VMAT2 and VMAT1; set-up: method as in PMID 8643547; details: cited from earlier work
VMAT2 L37F = biological target: T1, VMAT2 L37F (Homo sapiens, UniProt Q05940, L37F); assay: MST binding to VMAT2 L37F mutant
T1 construct: The eGFP-tagged full-length VMAT2 or VMAT2 mutants was purified by size exclusion chromatography; made in house; host or cells: Expi293 cells
Protocol: (§1) The eGFP-tagged full-length VMAT2 or VMAT2 mutants was purified by size exclusion chromatography in the assay buffer (50 mM HEPES, 150 mM NaCl, 0.01% DDM, 0.001% CHS, pH 7.4) as described but without cleavage. Peak fractions were pooled and diluted to 40 nM. […] For MST measurements, a series of 16 sequential 1:1 dilutions were prepared using assay buffer for each ligand, and each ligand dilution was mixed 1:1 with diluted protein to final protein concentration of 20 nM and final ligand concentrations in the μM to nM range. The samples were incubated for 10 min at room temperature, and then loaded into Standard Monolith Capillaries (Cat# MO-K022, NanoTemper Technologies). Measurements were carried out with a Monolith NT.115 device at 80% LED power and 40% MST power. Kd was determined using the MO. Affinity Analysis software (version 2.3, NanoTemper Technologies, Germany) is with the Kd fit function. Capillaries displaying aggregation or adsorption were excluded. Data of at least three independently pipetted measurements were analyzed and Kd is expressed as mean ± SEM. Binding curves were plotted by GraphPad Prism Prism 9.5.1 (GraphPad Software Inc., San Diego, USA).

VMAT2 = test system: VMAT2; set-up: method as in PMID 23506877; details: cited from earlier work
VMAT2 W318A = biological target: T2, VMAT2 W318A (Homo sapiens, UniProt Q05940, W318A); assay: MST binding to VMAT2 W318A mutant; details: MST (Fig. S9a), versus WT
T2 construct: The eGFP-tagged full-length VMAT2 or VMAT2 mutants was purified by size exclusion chromatography; made in house; host or cells: Expi293 cells
Protocol: as §1

[1] = biological target: T3, VMAT2 Leu124 and Leu125 mutant (Homo sapiens, UniProt Q05940, L124R/L125R); assay: MST binding to VMAT2 Leu124/Leu125 mutant; details: MST (Fig. S9a), versus WT
T3 construct: The eGFP-tagged full-length VMAT2 or VMAT2 mutants was purified by size exclusion chromatography; made in house; host or cells: Expi293 cells
Protocol: as §1

VMAT1_WT = biological target: T4, VMAT1_WT (Homo sapiens, UniProt P54219); assay: MST binding to WT VMAT1
T4 sequence (P54219 1-525): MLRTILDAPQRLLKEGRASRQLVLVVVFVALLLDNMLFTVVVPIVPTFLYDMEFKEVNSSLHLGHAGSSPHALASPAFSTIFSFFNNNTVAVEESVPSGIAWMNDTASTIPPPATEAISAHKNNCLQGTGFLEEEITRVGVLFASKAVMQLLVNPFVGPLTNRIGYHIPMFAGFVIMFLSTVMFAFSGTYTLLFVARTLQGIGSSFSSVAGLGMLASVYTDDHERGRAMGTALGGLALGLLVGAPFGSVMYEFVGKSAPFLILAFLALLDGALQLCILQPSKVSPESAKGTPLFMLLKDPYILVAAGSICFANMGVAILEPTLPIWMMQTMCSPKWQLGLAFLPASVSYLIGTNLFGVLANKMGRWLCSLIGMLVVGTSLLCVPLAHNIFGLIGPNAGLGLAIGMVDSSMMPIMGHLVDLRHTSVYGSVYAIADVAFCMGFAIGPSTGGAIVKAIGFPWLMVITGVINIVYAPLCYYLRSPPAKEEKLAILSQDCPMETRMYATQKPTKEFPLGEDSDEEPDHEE

VMAT2 V232L = biological target: T5, VMAT2 V232L (Homo sapiens, UniProt Q05940, V232L); assay: MST binding to VMAT2 V232L mutant; details: V232L variant, mean ± SEM
T5 construct: The eGFP-tagged full-length VMAT2 or VMAT2 mutants was purified by size exclusion chromatography; made in house; host or cells: Expi293 cells
Protocol: as §1

VMAT2 N34A = assay: MST binding to VMAT2 N34A mutant; set-up: species or system human; details: N34A versus WT
Protocol: as §1

VMAT2 I308V = biological target: T6, VMAT2 I308V (Homo sapiens, UniProt Q05940, I308V); assay: MST binding to VMAT2 I308V mutant; details: I308V variant, mean ± SEM
T6 construct: The eGFP-tagged full-length VMAT2 or VMAT2 mutants was purified by size exclusion chromatography; made in house; host or cells: Expi293 cells
Protocol: as §1

VMAT2 E312A = assay: MST binding to VMAT2 E312A mutant; set-up: species or system human; details: E312A versus WT, MST (Fig. S9a)
Protocol: as §1

VMAT1 = test system: VMAT1; set-up: method as in PMID 23506877; details: cited from earlier work
VMAT2_WT = VMAT2_WT (Homo sapiens, UniProt Q05940); assay: MST binding to WT VMAT2
Protocol: as §1

VMAT2 Y433F = biological target: T7, VMAT2 Y433F (Homo sapiens, UniProt Q05940, Y433F); assay: MST binding to VMAT2 Y433F mutant; details: Y433F variant, mean ± SEM
T7 construct: The eGFP-tagged full-length VMAT2 or VMAT2 mutants was purified by size exclusion chromatography; made in house; host or cells: Expi293 cells
Protocol: as §1

T1 sequence (Q05940 whole entry L37F): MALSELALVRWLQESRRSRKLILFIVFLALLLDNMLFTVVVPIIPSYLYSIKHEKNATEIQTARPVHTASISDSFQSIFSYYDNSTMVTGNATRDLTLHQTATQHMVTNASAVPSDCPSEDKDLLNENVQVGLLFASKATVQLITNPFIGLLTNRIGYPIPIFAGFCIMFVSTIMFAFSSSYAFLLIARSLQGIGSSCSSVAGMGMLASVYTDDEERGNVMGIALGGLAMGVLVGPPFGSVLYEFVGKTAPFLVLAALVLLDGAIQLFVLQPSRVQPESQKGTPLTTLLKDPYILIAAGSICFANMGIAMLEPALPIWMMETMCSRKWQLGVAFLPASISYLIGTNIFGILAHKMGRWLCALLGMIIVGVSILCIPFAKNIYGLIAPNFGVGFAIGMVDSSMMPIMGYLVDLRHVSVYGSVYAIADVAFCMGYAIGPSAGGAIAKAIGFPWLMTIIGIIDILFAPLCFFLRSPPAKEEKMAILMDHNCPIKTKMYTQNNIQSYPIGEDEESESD
Chain of VMAT2_WT (Q05940 whole entry): as the sequence (Q05940 whole entry L37F) above, with F37L counted along it
T7 sequence (Q05940 whole entry Y433F): as the sequence (Q05940 whole entry L37F) above, with F37L, Y433F counted along it
T5 sequence (Q05940 whole entry V232L): as the sequence (Q05940 whole entry L37F) above, with F37L, V232L counted along it
T6 sequence (Q05940 whole entry I308V): as the sequence (Q05940 whole entry L37F) above, with F37L, I308V counted along it
T3 sequence (Q05940 whole entry L124R/L125R): as the sequence (Q05940 whole entry L37F) above, with F37L, L124R, L125R counted along it
T2 sequence (Q05940 whole entry W318A): as the sequence (Q05940 whole entry L37F) above, with F37L, W318A counted along it

In the case of `NCCc1c[nH]cn1` [histamine], the “higher affinity of VMAT2 than VMAT1” value (VMAT2 and VMAT1; substrates) is listed as 30 fold.

In the case of `O=C(c1ccc(F)cc1)C1CCN(CCn2c(=O)[nH]c3ccccc3c2=O)CC1` [ketanserin], the “affinity or preference VMAT2 versus VMAT1” value (VMAT2 and VMAT1) is listed as “slight preference for VMAT2 over VMAT1”.

In the case of `COC(=O)[C@H]1[C@H]2C[C@@H]3c4[nH]c5cc(OC)ccc5c4CCN3C[C@H]2C[C@@H](OC(=O)c2cc(OC)c(OC)c(OC)c2)[C@@H]1OC` [RES, reserpine], the “affinity or preference VMAT2 versus VMAT1” value (VMAT2 and VMAT1) is given as “slight preference for VMAT2 over VMAT1”.

In the case of `COc1cc2c(cc1OC)C1CC(=O)C(CC(C)C)CN1CC2` (stereo not drawn) [TBZ, tetrabenazine], the “reduction of TBZ binding by L37F variant” value (VMAT2 L37F; L37F versus WT VMAT2, MST) is listed as 45 fold, the Kd (VMAT2 L37F; MST, L37F variant, mean ± SEM) is listed as 2.78 ± 1.08 µM and the IC50 (VMAT2) is listed as […]. The “TBZ binding, W318A mutant” value (VMAT2 W318A) was “substantial reduction in TBZ binding”, the “TBZ association, Leu124 and Leu125 perturbations” value [1] was “largely diminished TBZ association” and the “difference in affinity between VMAT2 and VMAT1” value (VMAT1_WT; 60 nM vs 9.38 μM) was about 150 fold. The Kd (VMAT1_WT; VMAT1 WT, mean ± SEM) was 9.38 µM, the Kd (VMAT2 V232L) was 22.9 ± 20 µM and the “reduction in TBZ binding affinity, N34A substitution” value (VMAT2 N34A) was 7 fold. For the same compound, the Kd (VMAT2 I308V) was 0.168 ± 0.103 µM, the “decrease in TBZ binding affinity, E312A mutant” value (VMAT2 E312A) was 8 fold and the “affinity or preference VMAT2 versus VMAT1” value (VMAT2 and VMAT1) was “selectively target VMAT2”. For the same compound, the “IC50 difference VMAT2 versus VMAT1” value (VMAT1; 0.3 μM vs 3 μM) was 10 fold, the IC50 (VMAT1; VMAT1) was 3 µM and the Kd (VMAT2_WT; MST, VMAT2 WT, mean ± SEM, n = 3–4, read-out: Kd) was 0.06 µM. The Kd (VMAT2 Y433F) was 0.437 ± 0.141 µM.

`NCCc1c[nH]c2ccc(O)cc12` [5-HT, serotonin] showed a Kd (VMAT2_WT) of 3.3 ± 1.01 µM and a Kd (VMAT2 Y433F) of 3.44 ± 1.13 µM.
